Where “and” joins values, the source holds several entries; their conditions need not be identical. Identical values can stand only once.
Experiments:
[1] = test system: human hepatocarcinoma cell line Hep3B; assay: In-vitro erythropoietin (EPO)-inducing activity experiment (EPO ELISA, OD450); format: cell-based; conditions: Hep3B cells, incubated 24 hours at 37°C
Experimental: In-vitro erythropoietin (EPO)-inducing activities of the compounds in Embodiments 10 to 12 were evaluated by using a human hepatocarcinoma cell line Hep3B (ATCC). Hep3B cells were cultured in an EMEM medium (Eagle's Minimum Essential Medium) at 37°C in the presence of 10% fetal bovine serum (FBS). Experimental steps were as follows: • (1) Cell preparation: the cells were inoculated in a 96-well plate, and cell plating was carried out according to an amount of 100 µL per well based on 2*10~4 per well. • (2) Preparation of compound concentration gradient: 100 µM, 20 µM, 2-parallel well detection. A solution with 200 times final concentration was prepared in a 96-well plate, the compound was diluted 200/3 times by using a cell culture medium, and then 50 µL of the compound was sucked for drug administration to the cells. 50 µL of DMSO-containing culture solution was added into a negative control well to make a final concentration contain 5 ‰ DMSO, and 50 µL of positive compound with the highest concentration was added into a positive control well to incubate the cells at 37°C for 24 hours. • (3) The reaction plate was washed twice with 1X Wash Buffer according to about 400 µL per well. • (4) 100 µL of diluted standard (comprising a standard blank control) was added into an appropriate well. • (5) 50 µL of sample and 50 µL of Sample Diluent were added into a sample well. • (6) 50 µL of 1X Biotin Conjugated Antibody were added into all wells to incubate the cells at room temperature for 1 hour. • (7) The reaction plate was washed with 1X Wash Buffer for 6 times according to about 400 µL per well. • (8) 100 µL of 1X Streptavidin-HRP was added in to each well to incubate the cells at room temperature for 15 minutes. • (9) The reaction plate was washed with 1X Wash Buffer for 6 times according to about 400 µL per well. • (10) 100 µL of TMB Substrate Solution was added into each well to incubate the cells at room temperature for 10 minutes. • (11) 100 µL of Stop Solution was added into each well. • (12) OD450 was read by EnSight.
The EPO-inducing activities of the compounds were expressed as the concentration for 50% of maximal effect (EC50).

PHD2 enzyme = target: T1, PHD2 enzyme (Homo sapiens, UniProt Q9GZT9); assay: Detection of PHD2 enzyme activity inhibition (FITC-HIF1α tracer, mP read-out); format: biochemical; conditions: test concentration from 10 µM, diluted 3 times into 10 concentrations; read-out: IC50
T1 construct: purchased Active motif
T1 sequence (Q9GZT9 whole entry, species assumed): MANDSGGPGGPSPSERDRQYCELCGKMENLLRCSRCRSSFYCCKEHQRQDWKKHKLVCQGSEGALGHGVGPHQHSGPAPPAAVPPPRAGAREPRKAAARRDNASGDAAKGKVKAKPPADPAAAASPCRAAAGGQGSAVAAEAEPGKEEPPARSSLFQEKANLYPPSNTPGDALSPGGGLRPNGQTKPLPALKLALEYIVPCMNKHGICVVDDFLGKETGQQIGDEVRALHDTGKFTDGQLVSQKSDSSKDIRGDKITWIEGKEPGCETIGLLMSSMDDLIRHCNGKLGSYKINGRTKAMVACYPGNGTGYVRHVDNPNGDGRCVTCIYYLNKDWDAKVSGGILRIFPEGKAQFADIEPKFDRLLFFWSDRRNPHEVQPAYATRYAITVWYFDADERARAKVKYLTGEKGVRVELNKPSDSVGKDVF
Experimental: (1) A 1×Assay buffer was prepared. […] 100 nL of 100% DMSO was added into a negative control well and a positive control well respectively. (3) An enzyme solution with 2 times final concentration was prepared with the 1×Assay buffer. (4) 5 µL of the enzyme solution with 2 times final concentration was added into a compound well and the positive control well respectively. (5) 5 µL of the 1 ×Assay buffer was added into the negative control well. (6) The 384-well plate was centrifuged at 1000 rpm for 30 seconds, oscillated and mixed evenly, and then incubated for 15 minutes. (7) A tracer solution with 2 times final concentration was prepared with the 1×Assay buffer, and 5.0 µL of the tracer solution with 2 times final concentration was added to start the reaction.

EPO (erythropoietin) [2] = assay: Pharmacological evaluation: influence of continuous administration on EPO level; format: in vivo, SD rats; conditions: for EPO levels in serum of the rats: after 14 days of administration; for EPO levels in plasma of the rats: after administration, compared with the group of positive drug Enarodustat; for EPO level after 14 days of administration: individual rats 1-6; for EPO level after 14 days of administration / EPO level after 14 days of administration, Mean: 0.3 mg/mL, 10 mL/kg, once a day for 14 consecutive days, blood 4 hours after the drug on the 14th day, 2904.6 pg/mL was an upper limit of measurement; for EPO level after 14 days of administration, Mean: mean of 6 rats
Experimental: This experiment was intended to evaluate an influence of continuous administration of the compounds prepared in Embodiments 12, 13 and 14 on EPO (erythropoietin) in SD rats.
• Line: SD (Sprague Dawley) • Weeks of age and weight: 8 weeks, weight 200 g to 220 g • Sex: male • Animal source: Beijing Vital River Laboratory Animal Technology Co., Ltd.
• Positive drug: Enarodustat • Description: commercialized drugs approved for marketing in Japan • Specification and content: 2 mg JTZ-951(Enarodustat), 140 capsules/box
After a week of adaptive feeding, SD rats were randomly divided into 3 groups, 6 rats in each group, which were namely a blank group, a positive drug group (Enarodustat) and a group of compound in Embodiment 12. An Enarodustat tablet was crushed by a mortar, then quantitatively added with 0.5% methyl cellulose, and magnetically stirred and mixed evenly; and the compound prepared in Embodiment 12 was weighed, then quantitatively added with 0.5% methyl cellulose, and magnetically stirred and mixed evenly. […] The drug was given once a day for 14 consecutive days, and blood was taken to measure an EPO level 4 hours after the drug was given on the 14th day.

EPO (erythropoietin) [3] = assay: as above; format: in vivo, SD rats; conditions: SD rat, continuous chronic administration, in words
[4] = Subacute toxicity test, 14 consecutive days; format: in vivo; conditions: SD rats, 10 mg/kg once a day for 14 consecutive days, in words
Text: A proper amount of the compound in Embodiment 13 and a proper amount of the compound in Embodiment 14 were weighed by a balance and respectively placed into proper glass bottles, then DMSO, Solutol HS-15 and 0.9% physiological saline (in a ratio of v: v: v = 5%: 10%: 85%) were sequentially added into the glass bottles, and vortexed and stirred, and a drug dissolution condition was continuously concerned in the stirring process until the compounds were completely dissolved/suspended. Finally, drug solutions of the compound in Embodiment 13 and the compound in Embodiment 14 with a concentration of 0.67 mg/mL were prepared for current use.
An animal room was well ventilated, equipped with an air-conditioner, kept at a temperature of 20°C and 25°C and a humidity of 40% to 70%, and in light and dark conditions for 12 hours respectively, and the animals could eat and drink freely. SD rats with good physical signs could be selected for this experiment after being adaptively fed for at least 3 days before administration. Table 23 Source and number of experimental animals
Any operation on the experimental animals in this experiment met the requirements of the "Regulations for the Administration of Affairs Concerning Experimental Animals" issued by the Ministry of Science and Technology of the People's Republic of China. In this experiment, a solvent control group, an administration group of compound in Embodiment 13 and an administration group of compound in Embodiment 14 were set up. Administration dosages of the administration group of compound in Embodiment 13 and the administration group of compound in Embodiment 14 were (10 mg/kg) once a day for 14 consecutive days, while the same amount of blank solvent was given to the blank control group, and administration volumes were all 15 mL/kg. After each administration, symptoms and degrees of toxic reaction of the animals were observed. Recovery observation was carried out for 7 days after the last administration. […]
During the experiment, experimenters and veterinarians should observe physical signs and health conditions of the experimental animals continuously. Any abnormal manifestations of the animals, such as pain, depression and decreased activity should be recorded in original records of the experiment. […]
During the experiment, all animals were observed beside cages at least twice a day, and observed continuously for 2 hours after the drug administration. During the drug administration, if the animals had serious side effects or died, observation results should be recorded in a corresponding form. […]
The animals should be weighed before daily drug administration for 14 consecutive days, and the weights were recorded in a corresponding form. Food intakes of the experimental animals were detected during the experiment. […]

[5] = Pharmacokinetic evaluation after intravenous injection or intragastric administration, plasma LC-MS/MS; format: in vivo, SD rats
Text: After the compounds were given to SD rats by intravenous injection or intragastric administration, concentrations of related compounds in plasma were detected by an LC-MS/MS method, and pharmacokinetics and absolute bioavailability of the compounds prepared in Embodiments 13 and 14 in the rats were preliminarily evaluated.
2. Line: Sprague Dawley rats, sex: male, weight: 200 g to 250 g
Pharmacokinetic characteristics of rodents after intravenous injection and oral administration of the compounds were tested by a standard scheme. In the experiment, a candidate compound was prepared into a clear solution, and given to the rats by single intravenous injection and intragastric administration. A solvent for intravenous injection was a certain proportion of N,N-dimethylacetamide (DMA) and 10% Solutol HS15 solution, and a solvent for oral administration was a certain proportion of sodium carboxymethyl cellulose (CMC) suspension. 5 minutes, 15 minutes, 30 minutes, 1 hour, 2 hours, 4 hours, 6 hours, 8 hours, 10 hours and 24 hours after drug administration, blood samples of the animals were respectively collected into K2EDTA anticoagulation tubes, which were temporarily stored on ice until centrifugation.

[6] = SD rats, in words, compared with Enarodustat in the table
[7] = male SD rats, route and dose not given

SMILES	EC50 ([1]; Homo sapiens, Hep3B, 24 h) [µM]	IC50 (PHD2 enzyme) [µM]	EPO level (EPO (erythropoietin) [2]; SD rat, continuous chronic administration, in words)	EPO levels in serum of the rats (EPO (erythropoietin) [2]; in words)	EPO levels in plasma of the rats (EPO (erythropoietin) [2]; in words)	EPO level after 14 days of administration (EPO (erythropoietin) [2])	EPO level after 14 days of administration, Mean (EPO (erythropoietin) [2]) [pg/mL]	hemoglobin level (EPO (erythropoietin) [3])	toxicities ([4]; compared with Enarodustat)	gastrointestinal findings [4]	half-lives [5, 6]	in-vivo exposure [5, 6]	Bioavailability F ([5]; male SD rats, intragastric vs intravenous) [%]	Concentration integral AUC [5, 7] [ng·h/mL]	Half-life period T1/2 [5, 7] [h]	EC50 [1] [µM]
O=C(O)CNC(=O)c1c(O)cc(C2CCc3ccccc3C2)n2ncnc12 (centres unmarked) [Compound in Embodiment 12, [(7-hydroxy-5-(1,2,3,4-tetrahydronaphthalene-2-yl)-[1,2,4]triazolo[1,5-a]pyridine-8-carbonyl)amino]acetic acid]	6.79	0.0343	significantly increase	increased significantly	significantly higher	2649.3 pg/mL and ≥ 2904.6 pg/mL (4×) and 2882.6 pg/mL	2858.4	significantly increase								
O=C(O)CNC(=O)c1c(O)cc(C2CCc3ccccc3C2)n2ncnc12 (single isomer, unassigned) [Compound in Embodiment 14, [(7-hydroxy-5-(1,2,3,4-tetrahydronaphthalene-2-yl)-[1,2,4]triazolo[1,5-a]pyridine-8-carbonyl)amino]acetic acid]				increased significantly	significantly higher	2279.1 pg/mL and 2095.6 pg/mL and 1982.7 pg/mL and 1943.6 pg/mL and 2038.9 pg/mL and 2137.6 pg/mL	2079.6		lower than that of Enarodustat	no obvious gastrointestinal necrosis, and bleeding spots or flatulence in a black stomach part	obviously longer	higher	31.3	15740	2.43	4.16
